Measurements published in patent US8080529B2, “Macrolides with anti-inflammatory activity” (Glaxo Group Limited, priority 2005, dated 2011).
Like-named read-outs stand apart in the source and are kept apart here.

What was measured:
Type in all cases: cell-based
TNF-α = experiment: Inhibition of TNF-α production by stimulated human peripheral blood leukocytes in vitro; conditions: Homo sapiens, Leukocyte, read-out: Percentage of inhibition of TNF-α production
Summary of the method: (§1)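 Values are percentage inhibition of cytokine release versus stimulated leukocytes lacking compound. Human blood leukocytes received 50 μM or 10 μM compound for 2 h before overnight LPS, PMA or zymosan stimulation, and supernatants were assayed by ELISA.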

IL-1α = experiment: Inhibition of IL-1 production by stimulated human peripheral blood leukocytes in vitro; conditions: Homo sapiens, Leukocyte, read-out: Percentage of inhibition of IL-1α production
IL-6 = experiment: Inhibition of IL-6 production by stimulated human peripheral blood leukocytes in vitro; conditions: Homo sapiens, Leukocyte, read-out: Percentage of inhibition of IL-6 production
Summary of the method: as §1

IL-8 = experiment: Inhibition of IL-8 production by stimulated human peripheral blood leukocytes in vitro; conditions: Homo sapiens, Leukocyte, read-out: Percentage of inhibition of IL-8 production
Summary of the method: as §1

Hep G2 = experiment: Cytotoxicity assay (MTT), Hep G2 cell line; conditions: 24 h
Description: (§2) To determine whether the anti-inflammatory activity of the test compounds was due to observed inhibition of cytokine production and inhibition of proliferation in vitro, and was not a consequence of cellular cytotoxicity, measurement of succinate dehydrogenase activity in living cells was performed. Cells were cultured for 24 h in RPM medium as described above at 37° C. the presence of the test compounds at concentrations of 50 μM and 12.5 μM. MTT [3-(4,5-dimethylthiazole-2-yl)-2,5-diphenyl tetrazolium bromide] (Promega, USA), a detection reagent, was then added and the cultures were incubated for 0.5-2 h. The amount of MTT-Formazan produced was determined using a spectrophotometer at 490 nm (Mosmann, J. Immunol. Methods, 1983, 65: 55-63).
(§3) The percentage of inhibition of cell growth was calculated using the following formula: % inhibition of cell growth=[…].

A549 = experiment: Cytotoxicity assay (MTT), A549 cell line; conditions: 24 h
Description: as §2, §3

SMILES	inhibition at 10 µM (TNF-α; LPS-stimulated PBL) [%]	inhibition at 10 µM (TNF-α; PMA-stimulated PBL) [%]	inhibition at 10 µM (TNF-α; zymosan-stimulated PBL) [%]	inhibition at 50 µM (TNF-α; LPS-stimulated PBL) [%]	inhibition at 50 µM (TNF-α; PMA-stimulated PBL) [%]	inhibition at 50 µM (TNF-α; zymosan-stimulated PBL) [%]	inhibition at 10 µM (IL-1α; LPS-stimulated PBL) [%]	inhibition at 10 µM (IL-1α; PMA-stimulated PBL) [%]	inhibition at 10 µM (IL-1α; zymosan-stimulated PBL) [%]	inhibition at 50 µM (IL-1α; LPS-stimulated PBL) [%]	inhibition at 50 µM (IL-1α; PMA-stimulated PBL) [%]	inhibition at 50 µM (IL-1α; zymosan-stimulated PBL) [%]	inhibition at 10 µM (IL-6; LPS-stimulated PBL) [%]	inhibition at 10 µM (IL-6; PMA-stimulated PBL) [%]	inhibition at 10 µM (IL-6; zymosan-stimulated PBL) [%]	inhibition at 50 µM (IL-6; LPS-stimulated PBL) [%]	inhibition at 50 µM (IL-6; PMA-stimulated PBL) [%]	inhibition at 50 µM (IL-6; zymosan-stimulated PBL) [%]	inhibition at 10 µM (IL-8; LPS-stimulated PBL) [%]	inhibition at 10 µM (IL-8; PMA-stimulated PBL) [%]	other results
CC[C@H]1OC(=O)[C@H](C)[C@@H](O[C@H]2C[C@@](C)(OC)[C@@H](OC(=O)CCN3CC(C)CC(C)C3)[C@H](C)O2)[C@H](C)[C@@H](O[C@@H]2O[C@H](C)C[C@H](N(C)C)[C@H]2O)[C@](C)(OC)C[C@@H](C)C(=O)N[C@H](C)[C@@H](O)[C@]1(C)O (stereo partly shown) [Example 37]	15	28	17	76	45	96	60	14	49	69	25	98	20	41	21	78	57	100	14	17	inhibition at 10 µM (IL-8; zymosan-stimulated PBL): 27%; inhibition at 50 µM (IL-8; LPS-stimulated PBL): 0%; inhibition at 50 µM (IL-8; PMA-stimulated PBL): 10%; inhibition at 50 µM (IL-8; zymosan-stimulated PBL): 0%; Percentage of inhibition of cell growth (Hep G2; 12.5 μM): 3%; Percentage of inhibition of cell growth (Hep G2; 50 μM): 19%; Percentage of inhibition of cell growth (A549; 12.5 μM): 1%; Percentage of inhibition of cell growth (A549; 50 μM): 0%
CC[C@H]1OC(=O)[C@H](C)[C@@H](O[C@H]2C[C@@](C)(OC)[C@@H](OC(=O)CCNC3CC3)[C@H](C)O2)[C@H](C)[C@@H](O[C@@H]2O[C@H](C)C[C@H](N(C)C)[C@H]2O)[C@](C)(OC)C[C@@H](C)C(=O)N[C@H](C)[C@@H](O)[C@]1(C)O [Example 40]	67	55	60	82	77	76	0	0	1	28	0	55	7	0	0	0	0	0	24	31	inhibition at 10 µM (IL-8; zymosan-stimulated PBL): 6%; inhibition at 50 µM (IL-8; LPS-stimulated PBL): 0%; inhibition at 50 µM (IL-8; PMA-stimulated PBL): 12%; inhibition at 50 µM (IL-8; zymosan-stimulated PBL): 0%; Percentage of inhibition of cell growth (Hep G2; 12.5 μM): 2%; Percentage of inhibition of cell growth (Hep G2; 50 μM): 2%; Percentage of inhibition of cell growth (A549; 12.5 μM): 0%; Percentage of inhibition of cell growth (A549; 50 μM): 0%
CC[C@H]1OC(=O)[C@H](C)[C@@H](O[C@H]2C[C@@](C)(OC)[C@@H](OC(=O)CCN3CCCCCC3)[C@H](C)O2)[C@H](C)[C@@H](O[C@@H]2O[C@H](C)C[C@H](N(C)C)[C@H]2O)[C@](C)(OC)C[C@@H](C)C(=O)N[C@H](C)[C@@H](O)[C@]1(C)O [Example 41]	39	30	27	95	70	99	79	52	80	84	100	100	25	59	36	92	79	100	29	10	inhibition at 10 µM (IL-8; zymosan-stimulated PBL): 19%; inhibition at 50 µM (IL-8; LPS-stimulated PBL): 87%; inhibition at 50 µM (IL-8; PMA-stimulated PBL): 42%; inhibition at 50 µM (IL-8; zymosan-stimulated PBL): 63%; Percentage of inhibition of cell growth (Hep G2; 12.5 μM): 7%; Percentage of inhibition of cell growth (Hep G2; 50 μM): 3%; Percentage of inhibition of cell growth (A549; 12.5 μM): 1%; Percentage of inhibition of cell growth (A549; 50 μM): 0%
CC[C@H]1OC(=O)[C@H](C)[C@@H](OC2C[C@@](C)(OC)[C@@H](OC(=O)CCN3CCNCC3)[C@H](C)O2)[C@H](C)[C@@H](OC2O[C@H](C)C[C@H](N(C)C)[C@H]2O)[C@](C)(OC)C[C@@H](C)C(=O)[C@H](C)[C@@H](O)[C@]1(C)O (stereo partly shown) [Example 50, 4″-O-(3-piperazin-1-yl-propionyl)-6-O-methylerithromycin A]	10	0	36	100	100	98	19	0	81	23	44	69	0	0	52	54	23	96	0	0	inhibition at 10 µM (IL-8; zymosan-stimulated PBL): 0%; inhibition at 50 µM (IL-8; LPS-stimulated PBL): 61%; inhibition at 50 µM (IL-8; PMA-stimulated PBL): 100%; inhibition at 50 µM (IL-8; zymosan-stimulated PBL): 70%; Percentage of inhibition of cell growth (Hep G2; 12.5 μM): 0%; Percentage of inhibition of cell growth (Hep G2; 50 μM): 8%; Percentage of inhibition of cell growth (A549; 12.5 μM): 10%; Percentage of inhibition of cell growth (A549; 50 μM): 10%
